From patent US20230416275A1, “MODULATORS OF CYSTIC FIBROSIS TRANSMEMBRANE CONDUCTANCE REGULATOR” (VERTEX PHARMACEUTICALS INCORPORATED, priority 2020, published 2023) come the findings set out here.

pEC50: −log10 of the molar value.

This assay deals with CFTR-mediated chloride transport in human intestinal epithelial enteroid cells (Homo sapiens, UniProt P13569). The assay can be described thus: Membrane potential dye, Enteroid Assay A. Format: cell-based. As to conditions: for Ent. A Max Activity (%): % of chloride transport of triple combination control (3 μM N-[(6-amino-2-pyridyl)sulfonyl]-6-(3-fluoro-5-isobutoxy-phenyl)-2-[(4S)-2,2,4-trimethylpyrrolidin-1-yl]pyridine-3-carboxamide, 3 μM tezacaftor, 300 nM acute ivacaftor); for pEC50: enteroid cells, 18-24 hours incubation, acute 10 μM forskolin and 300 nM ivacaftor, read-out: Ent. A EC50. As to the method:
Base medium (ADF+++) consisted of Advanced DMEM/Ham's F12, 2 mM Glutamax, 10 mM HEPES, […] penicillin/streptomycin.
Intestinal enteroid maintenance medium (IEMM) consisted of ADF+++, 1×B27 supplement, 1×N2 supplement, 1.25 mM N-acetyl cysteine, 10 mM Nicotinamide, 50 ng/mL hEGF, 10 nM Gastrin, 1 μg/mL hR-spondin-1, 100 ng/mL hNoggin, TGF-b type 1 inhibitor A-83-01, 100 μg/mL Primocin, 10 μM P38 MAPK inhibitor SB202190.
Bath 1 Buffer consisted of 1 mM MgCl2, 160 mM NaCl, 4.5 mM KCl, 10 mM HEPES, 10 mM Glucose, 2 mM CaCl2.
Chloride Free Buffer consisted of 1 mM Magnesium Gluconate, 2 mM Calcium Gluconate, 4.5 mM Potassium Gluconate, 160 mM Sodium Gluconate, 10 mM HEPES, 10 mM Glucose.
Bath1 Dye Solution consisted of Bath 1 Buffer, 0.04% Pluronic F127, 20 μM Methyl Oxonol, 30 μM CaCCinh-A01, 30 μM Chicago Sky Blue.
Chloride Free Dye Solution consisted of Chloride Free Buffer, 0.04% Pluronic F127, 20 μM Methyl Oxonol, 30 μM CaCCinh-A01, 30 μM Chicago Sky Blue.
Chloride Free Dye Stimulation Solution consisted of Chloride Free Dye Solution, 10 μM forskolin, 100 μM IBMX, and 300 nM Compound III.
Human intestinal epithelial enteroid cells were obtained from the Hubrecht Institute for Developmental Biology and Stem Cell Research, Utrecht, The Netherlands and expanded in T-Flasks as previously described (Dekkers J F, Wiegerinck C L, de Jonge H R, Bronsveld I, Janssens H M, de Winter-de Groot K M, Brandsma A M, de Jong N W M, Bijvelds M J C, Scholte B J, Nieuwenhuis E E S, van den Brink S, Clevers H, van der Ent C K, Middendorp S and M Beekman J M. A functional CFTR assay using primary cystic fibrosis intestinal organoids. Nat Med. 2013 July; 19(7):939-45).
c. Enteroid Cell Harvesting and Seeding
Cells were recovered in cell recovery solution, collected by centrifugation at 650 rpm for 5 minutes at 4° C., resuspended in TrypLE and incubated for 5 minutes at 37° C. Cells were then collected by centrifugation at 650 rpm for 5 minutes at 4° C. and resuspended in IEMM containing 10 μM ROCK inhibitor (RI). The cell suspension was passed through a 40 μm cell strainer and resuspended at 1×10^6 cells/mL in IEMM containing 10 μM RI. Cells were seeded at 5000 cells/well into multi-well plates and incubated for overnight at 37° C., 95% humidity and 5% CO2 prior to assay.
d. Membrane Potential Dye, Enteroid Assay A
Enteroid cells were incubated with test compound in IEMM for 18-24 hours at 37° C., 95% humidity and 5% CO2. […] Briefly, cells were washed 5 times in Bath 1 Buffer. Bath 1 Dye Solution was added, and the cells were incubated for 25 minutes at room temperature. Following dye incubation, cells were washed 3 times in Chloride Free Dye Solution. Chloride transport was initiated by addition of Chloride Free Dye Stimulation Solution and the fluorescence signal was read for 15 minutes. […] Chloride transport was then expressed as a percentage of the chloride transport following treatment with 3 μM N-[(6-amino-2-pyridyl)sulfonyl]-6-(3-fluoro-5-isobutoxy-phenyl)-2-[(4S)-2,2,4-trimethylpyrrolidin-1-yl]pyridine-3-carboxamide, 3 μM (R)-1-(2,2-difluorobenzo[d][1,3]dioxol-5-yl)-N-(1-(2,3-dihydroxypropyl)-6-fluoro-2-(1-hydroxy-2-methylpropan-2-yl)-1H-indol-5-yl)cyclopropanecarboxamide and 300 nM acute N-[2,4-bis(1,1-dimethylethyl)-5-hydroxyphenyl]-1,4-dihydro-4-oxoquinoline-3-carboxamide triple combination control (% Activity).

Sequence of CFTR-mediated chloride transport in human intestinal epithelial enteroid cells (P13569 with tags, fused parts or gaps DEL508-508): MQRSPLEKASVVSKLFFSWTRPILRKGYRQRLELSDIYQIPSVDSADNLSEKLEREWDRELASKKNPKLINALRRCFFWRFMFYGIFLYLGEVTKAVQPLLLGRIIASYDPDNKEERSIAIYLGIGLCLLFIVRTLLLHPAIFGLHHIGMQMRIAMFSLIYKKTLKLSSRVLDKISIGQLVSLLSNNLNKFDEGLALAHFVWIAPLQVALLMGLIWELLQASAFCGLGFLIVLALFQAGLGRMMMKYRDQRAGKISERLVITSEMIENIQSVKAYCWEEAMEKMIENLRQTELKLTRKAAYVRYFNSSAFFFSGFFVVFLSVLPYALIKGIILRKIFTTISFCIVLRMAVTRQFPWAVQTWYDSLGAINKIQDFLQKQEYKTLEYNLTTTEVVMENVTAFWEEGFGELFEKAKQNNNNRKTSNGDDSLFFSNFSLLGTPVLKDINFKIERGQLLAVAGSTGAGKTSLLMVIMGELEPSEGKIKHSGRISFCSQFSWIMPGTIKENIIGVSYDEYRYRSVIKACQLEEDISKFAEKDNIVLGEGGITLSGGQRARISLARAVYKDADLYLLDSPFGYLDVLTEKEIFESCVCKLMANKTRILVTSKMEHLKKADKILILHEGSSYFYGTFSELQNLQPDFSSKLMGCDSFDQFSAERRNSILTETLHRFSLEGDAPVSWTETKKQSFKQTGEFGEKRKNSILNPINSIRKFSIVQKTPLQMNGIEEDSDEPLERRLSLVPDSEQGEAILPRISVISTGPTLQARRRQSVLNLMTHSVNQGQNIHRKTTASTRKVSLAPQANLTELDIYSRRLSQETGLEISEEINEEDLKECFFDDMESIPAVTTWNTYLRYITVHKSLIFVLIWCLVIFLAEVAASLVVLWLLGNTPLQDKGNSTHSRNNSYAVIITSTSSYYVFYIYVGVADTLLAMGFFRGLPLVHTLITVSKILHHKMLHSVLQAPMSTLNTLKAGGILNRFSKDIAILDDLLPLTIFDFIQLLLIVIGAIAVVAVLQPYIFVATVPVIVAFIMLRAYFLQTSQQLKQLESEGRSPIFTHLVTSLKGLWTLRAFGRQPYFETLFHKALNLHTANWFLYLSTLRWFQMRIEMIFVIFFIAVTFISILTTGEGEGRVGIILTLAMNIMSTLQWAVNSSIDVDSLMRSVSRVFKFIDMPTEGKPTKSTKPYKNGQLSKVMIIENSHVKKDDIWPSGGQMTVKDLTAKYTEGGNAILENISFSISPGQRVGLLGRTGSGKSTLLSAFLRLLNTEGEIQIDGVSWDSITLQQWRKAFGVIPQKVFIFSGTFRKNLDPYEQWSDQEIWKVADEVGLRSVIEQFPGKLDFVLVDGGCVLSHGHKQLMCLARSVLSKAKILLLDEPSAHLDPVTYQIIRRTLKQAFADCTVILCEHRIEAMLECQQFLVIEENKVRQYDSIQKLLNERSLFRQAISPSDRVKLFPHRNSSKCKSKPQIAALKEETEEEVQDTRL

For orientation: pEC50 means the EC50 on a negative log10 scale, so that one unit is a factor of ten. For `Cc1cccc(C)c1-c1cc2nc(n1)NS(=O)(=O)c1cccc(n1)NC(=O)C1CC(CN(C(=O)OC(C)(C)C)C1)O2` (stereo not shown) [Compound 18], the “Ent. A Max Activity (%)” value is recorded as “+++ (+++ is >60%)” and the pEC50 is 4.52 to 5.52.

For `Cc1cccc(C)c1-c1cc2nc(n1)NS(=O)(=O)c1cccc(c1)NC(=O)[C@@H]1C[C@H](O2)C(=O)N(CCC(C)(C)C)C1` [Compound 89], the “Ent. A Max Activity (%)” value was “+ (+ is <30%)”.

In the case of `Cc1cccc(C)c1-c1cc2nc(n1)NS(=O)(=O)c1cccc(n1)NC(=O)[C@@H]1C[C@@H](CN(C(=O)OC(C)(C)C)C1)O2` (single isomer, unassigned) [Compound 16, tert-Butyl 19-(2,6-dimethylphenyl)-8,15,15-trioxo-2-oxa-15λ^6-thia-5,9,16,18,21,22-hexaazatetracyclo[15.3.1.13,7.110,14]tricosa-1(21),10,12,14(22),17,19-hexaene-5-carboxylate], the “Ent. A Max Activity (%)” value is recorded as “+++ (+++ is >60%)” and the pEC50 was more than 6.00.

As to `Cc1cccc(C)c1-c1cc2nc(n1)NS(=O)(=O)c1cccc(c1)NC(=O)[C@@H]1C[C@@H](CN(Cc3ccccc3)C1)O2` [Compound 9, (3S,7R)-5-Benzyl-19-(2,6-dimethylphenyl)-2-oxa-15λ^6-thia-5,9,16,18,21-pentaazatetracyclo[15.3.1.13,7.110,14]tricosa-1(20),10,12,14(22),17(21),18-hexaene-8,15,15-trione], the “Ent. A Max Activity (%)” value was “+++ (+++ is >60%)” and the negative logarithm of the EC50 (pEC50) is more than 6.00.

Take `Cc1cccc(C)c1-c1cc2nc(n1)NS(=O)(=O)c1cccc(c1)NC(=O)[C@@H]1C[C@@H](CN(CC3C4(CC4)C34CC4)C1)O2` [Compound 6, (3S,7R)-19-(2,6-Dimethylphenyl)-5-({dispiro[2.0.24.13]heptan-7-yl}methyl)-2-oxa-15λ^6-thia-5,9,16,18,21-pentaazatetracyclo[15.3.1.13,7.110,14]tricosa-1(21),10(22),11,13,17,19-hexaene-8,15,15-trione]: the “Ent. A Max Activity (%)” value is on record as “+++ (+++ is >60%)” and the pEC50 is more than 6.00.

As for `Cc1cccc(C)c1-c1cc2nc(n1)NS(=O)(=O)c1cccc(c1)NC(=O)[C@@H]1C[C@@H](CN(CCC(C)(C)C3CC3)C1)O2` [Compound 26], the “Ent. A Max Activity (%)” value is given as “+++ (+++ is >60%)” and the pEC50 was more than 6.00.

As for `Cc1cccc(C)c1-c1cc2nc(n1)NS(=O)(=O)c1cccc(c1)NC(=O)C1CC(O2)C(=O)N(CCC(C)(C)C)C1` (stereo not shown) [Compound 93], the “Ent. A Max Activity (%)” value is recorded as “++ (++ is 30-60%)”.

With `Cc1cccc(C)c1-c1cc2nc(n1)NS(=O)(=O)c1cccc(c1)NC(=O)C1CC(O2)C(C)(C)N(Cc2ccccc2)C1` (single isomer, unassigned) [Compound 73, 5-Benzyl-19-(2,6-dimethylphenyl)-4,4-dimethyl-2-oxa-15λ^6-thia-5,9,16,18,21-pentaazatetracyclo[15.3.1.13,7.110,14]tricosa-1(21),10,12,14(22),17,19-hexaene-8,15,15-trione], the “Ent. A Max Activity (%)” value is “+ (+ is <30%)” and the pEC50 is more than 6.00.

Regarding `CCN1C[C@@H]2C[C@H](C1)C(=O)Nc1cccc(c1)S(=O)(=O)Nc1nc(cc(-c3c(C)cccc3C)n1)O2` [Compound 39], the “Ent. A Max Activity (%)” value is on record as “+++ (+++ is >60%)” and the pEC50 was 4.52 to 5.52.

As for `Cc1cccc(C)c1-c1cc2nc(n1)NS(=O)(=O)c1cccc(c1)NC(=O)[C@@H]1C[C@@H](CN(CC3C(C)(C)C3(C)C)C1)O2` [Compound 31], the “Ent. A Max Activity (%)” value is listed as “++ (++ is 30-60%)” and the pEC50 is more than 6.00.

Take `Cc1cccc(C)c1-c1cc2nc(n1)NS(=O)(=O)c1cccc(c1)NC(=O)[C@@H]1C[C@@H](CN(CCC3CCOCC3)C1)O2` [Compound 38]: the “Ent. A Max Activity (%)” value is “++ (++ is 30-60%)” and the pEC50 is 5.52 to 6.00.

As to `Cc1cccc(C)c1-c1cc2nc(n1)NS(=O)(=O)c1cccc(c1)NC(=O)[C@@H]1C[C@@H](CN(C(=O)C3C(C)(C)C3(C)C)C1)O2` [Compound 37], the “Ent. A Max Activity (%)” value is reported as “++ (++ is 30-60%)” and the pEC50 is more than 6.00.

As to `CCCCCCN1C[C@@H]2C[C@H](C1)C(=O)Nc1cccc(c1)S(=O)(=O)Nc1nc(cc(-c3c(C)cccc3C)n1)O2` [Compound 41], the “Ent. A Max Activity (%)” value was “+++ (+++ is >60%)” and the pEC50 is more than 6.00.

As for `Cc1cccc(C)c1-c1cc2nc(n1)NS(=O)(=O)c1cccc(c1)NC(=O)[C@@H]1C[C@@H](CN1C(=O)OC(C)(C)C)O2` [Compound 80], the “Ent. A Max Activity (%)” value is given as “+ (+ is <30%)”.

Regarding `Cc1cccc(C)c1-c1cc2nc(n1)NS(=O)(=O)c1cccc(c1)NC(=O)[C@@H]1C[C@@H](CN(CCN(C)C)C1)O2` [Compound 20], the “Ent. A Max Activity (%)” value is “+ (+ is <30%)” and the pEC50 is 4.52 to 5.52.

Consider `Cc1cccc(C)c1-c1cc2nc(n1)NS(=O)(=O)c1cccc(c1)NC(=O)[C@@H]1C[C@H](O2)C(=O)N(CCC(C)(C)C)C1` [Compound 90], for which the “Ent. A Max Activity (%)” value is “++ (++ is 30-60%)” and the pEC50 was 4.52 to 5.52.

Turning to `Cc1cccc(C)c1-c1cc2nc(n1)NS(=O)(=O)c1cccc(n1)NC(=O)C1CC(CN(C(=O)OC(C)(C)C)C1)O2` (stereo not shown) [Compound 13, tert-Butyl 19-(2,6-dimethylphenyl)-8,15,15-trioxo-2-oxa-15λ^6-thia-5,9,16,18,21,22-hexaazatetracyclo[15.3.1.13,7.110,14]tricosa-1(21),10,12,14(22),17,19-hexaene-5-carboxylate], the “Ent. A Max Activity (%)” value is reported as “+++ (+++ is >60%)” and the pEC50 was more than 6.00.

On to `Cc1cccc(C)c1-c1cc2nc(n1)NS(=O)(=O)c1cccc(c1)NC(=O)[C@@H]1C[C@H](O2)C(=O)N(CCC(C)(C)C)C1` [Compound 91], for which the “Ent. A Max Activity (%)” value is on record as “+ (+ is <30%)” and the pEC50 was 4.52 to 5.52.

For the compound `Cc1cccc(C)c1-c1cc2nc(n1)NS(=O)(=O)c1cccc(c1)NC(=O)[C@@H]1C[C@@H](CN(C(=O)C3(C(F)(F)F)CC3)C1)O2` [Compound 36], the “Ent. A Max Activity (%)” value was “+++ (+++ is >60%)” and the pEC50 is more than 6.00.

Regarding `Cc1cccc(C)c1-c1cc2nc(n1)NS(=O)(=O)c1cccc(c1)NC(=O)C1CC(O2)C(=O)N(CCC(C)(C)C)C1` (stereo not shown) [Compound 92], the “Ent. A Max Activity (%)” value is listed as “+ (+ is <30%)”.

As to `COC(=O)N1C[C@@H]2C[C@H](C1)C(=O)Nc1cccc(c1)S(=O)(=O)Nc1nc(cc(-c3c(C)cccc3C)n1)O2` [Compound 32], the “Ent. A Max Activity (%)” value was “+++ (+++ is >60%)” and the pEC50 is 5.52 to 6.00.

Take `Cc1cccc(C)c1-c1cc2nc(n1)NS(=O)(=O)c1cccc(c1)NC(=O)C1CN(C(=O)OC(C)(C)C)CCC1O2` (stereo not shown) [Compound 78]: the “Ent. A Max Activity (%)” value was “++ (++ is 30-60%)” and the pEC50 was 5.52 to 6.00.
